The assay has as its system cGMP PDE5. Put plainly: In vitro PDE inhibitory activity against cGMP PDE5 (batch method or scintillation proximity assay). It is filed as biochemical, human or rabbit. The protocol:
In vitro PDE inhibitory activities against cyclic guanosine 3′,5′-monophosphate (cGMP) and cyclic adenosine 3′,5′-monophosphate (cAMP) phosphodiesterases were determined by measurement of their IC50 values (the concentration of compound required for 50% inhibition of enzyme activity).
The required PDE enzymes were isolated from a variety of sources, including human corpus cavernosum, human and rabbit platelets, human cardiac ventricle, human skeletal muscle and bovine retina, essentially by the method of W. J. Thompson and M. M. Appleman (Biochem., 1971, 10, 311). In particular, the cGMP-specific PDE (PDE5) and the cGMP-inhibited cAMP PDE (PDE3) were obtained from human corpus cavernosum tissue, human platelets or rabbit platelets; the cGMP-stimulated PDE (PDE2) was obtained from human corpus cavernosum; the calcium/calmodulin (Ca/CAM)-dependent PDE (PDE1) from human cardiac ventricle; the cAMP-specific PDE (PDE4) from human skeletal muscle; and the photoreceptor PDE (PDE6) from bovine retina. Phosphodiesterases 7-11 were generated from full length human recombinant clones transfected into SF9 cells.
Assays were performed either using a modification of the “batch” method of W. J. Thompson et al. (Biochem., 1979, 18, 5228) or using a scintillation proximity assay for the direct detection of AMP/GMP using a modification of the protocol described by Amersham plc under product code TRKQ7090/7100. In summary, the effect of PDE inhibitors was investigated by assaying a fixed amount of enzyme in the presence of varying inhibitor concentrations and low substrate, (cGMP or cAMP in a 3:1 ratio unlabelled to [^3H]-labeled at a conc ˜1/3 Km) such that IC50 ≅Ki. The final assay volume was made up to 100 μl with assay buffer [20 mM Tris-HCl pH 7.4, 5 mM MgCl2, 1 mg/ml bovine serum albumin]. Reactions were initiated with enzyme, incubated for 30-60 min at 30° C. to give <30% substrate turnover and terminated with 50 μl yttrium silicate SPA beads (containing 3 mM of the respective unlabelled cyclic nucleotide for PDEs 9 and 11). Plates were re-sealed and shaken for 20 min, after which the beads were allowed to settle for 30 min in the dark and then counted on a TopCount plate reader (Packard, Meriden, Conn.) Radioactivity units were converted to % activity of an uninhibited control (100%), plotted against inhibitor concentration and inhibitor IC50 values obtained using the ‘Fit Curve’ Microsoft Excel extension.

With `CCCOc1ccc(S(=O)(=O)N2CCN(CC)CC2)cc1-c1nc2c(ncn2-c2ccc(N)cc2)c(=O)[nH]1` [Example 4, 9-(4-Aminophenyl)-2-[5-(4-ethylpiperazin-1-ylsulfonyl)-2-n-propoxy-phenyl]purin-6-one], the “Percentage inhibition of PDE 5” value (Concentration 10 nM) was 74.1.

Regarding `CCCOc1ccc(S(=O)(=O)N2CCN(CC)CC2)cc1-c1nc2[nH]cnc2c(=O)[nH]1` [Example 1, 2-[5-(4-Ethylpiperazin-1-ylsulfonyl)-2-n-propoxyphenyl]-9H-purin-6-one], where the note is “Concentration 100 nM”, the “Percentage inhibition of PDE 5” value is listed as 47.

Take `CCCOc1ccc(S(=O)(=O)N2CCN(c3ccccn3)CC2)cc1-c1nc2c(ncn2CCC)c(=O)[nH]1` [Example 9, 2-(2-n-Propoxy-5-[4-{pyridin-2-yl}piperazin-1-ylsulfonyl]phenyl)-9-n-propylpurin-6-one]: for the setting “Concentration 10 nM”, the “Percentage inhibition of PDE 5” value is 100.

With `CCCCOc1ncc(S(=O)(=O)N2CCN(CC)CC2)cc1-c1nc2c(nc(Cc3ccccc3)n2CCC)c(=O)[nH]1` [Example 7, 8-Benzyl-2-[2-n-butoxy-5-(4-ethylpiperazin-1-ylsulfonyl)pyridin-3-yl]-9-n-propylpurin-6-one], the “Percentage inhibition of PDE 5” value (Concentration 10 nM) worked out at 80.3.

As to `CCCOc1ccc(S(=O)(=O)N2CCN(C)CC2)cc1-c1nc2[nH]c(-c3cccnc3)nc2c(=O)[nH]1` [Example 5, 2-[5-(4-Methylpiperazin-1-ylsulfonyl)-2-n-propoxyphenyl]-8-(pyridin-3-yl)-9H-purin-6-one], the “Percentage inhibition of PDE 5” value (Concentration 100 nM) came to 48.

(Values after patent US6586439B2, “Pharmaceutically active compounds” (Pfizer Inc., priority 1999, dated 2003).)
